From patent publication US20250098679A1, “HERBICIDAL PYRIDONE DERIVATIVES” (SYNGENTA CROP PROTECTION AG, priority 2021, published 2025)

Experiments:
Assay type in all cases: in vivo
Conditions in all cases: evaluated after 13 days
Setaria faberi (SETFA) [1] = assay: Pre-emergence Test, Setaria faberi (SETFA)
[2] = tested on: Echinochloa crus-galli (ECHCG); assay: Pre-emergence Test, Echinochloa crus-galli (ECHCG)
Zea mays (ZEAMX) [3] = assay: Pre-emergence Test, Zea mays (ZEAMX)
[4] = tested on: Ipomoea hederacea (IPOHE); assay: Pre-emergence Test, Ipomoea hederacea (IPOHE)
[5] = tested on: Amaranthus palmeri (AMAPA); assay: Pre-emergence Test, Amaranthus palmeri (AMAPA)
[6] = tested on: Amaranthus retoflexus (AMARE); assay: Pre-emergence Test, Amaranthus retoflexus (AMARE)
Setaria faberi (SETFA) [7] = assay: Post-emergence Test, Setaria faberi (SETFA); design: key to percentage damage caused to the plant, SETFA (five-point scale): 5=81-100%, 4=61-80%, 3=41-60%, 2=21-40%, 1=0-20% damage
Outline: (§1)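 Tested at 1000 g/ha unless otherwise stated. Plants were held at 24/16 °C day/night with a 14 h light period. Percent damage was read at 13 days and reported in five bands.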

[8] = tested on: Echinochloa crus-galli (ECHCG); assay: Post-emergence Test, Echinochloa crus-galli (ECHCG); design: key to percentage damage caused to the plant, ECHCG (five-point scale): 5=81-100%, 4=61-80%, 3=41-60%, 2=21-40%, 1=0-20% damage
Outline: as §1

Zea mays (ZEAMX) [9] = assay: Post-emergence Test, Zea mays (ZEAMX); design: key to percentage damage caused to the plant, ZEAMX (five-point scale): 5=81-100%, 4=61-80%, 3=41-60%, 2=21-40%, 1=0-20% damage
Outline: as §1

[10] = tested on: Ipomoea hederacea (IPOHE); assay: Post-emergence Test, Ipomoea hederacea (IPOHE); design: key to percentage damage caused to the plant, IPOHE (five-point scale): 5=81-100%, 4=61-80%, 3=41-60%, 2=21-40%, 1=0-20% damage
Outline: as §1

[11] = tested on: Amaranthus palmeri (AMAPA); assay: Post-emergence Test, Amaranthus palmeri (AMAPA); design: key: 5=81-100%, 4=61-80%, 3=41-60%, 2=21-40%, 1=0-20% damage
Outline: as §1

[12] = tested on: Amaranthus retoflexus (AMARE); assay: Post-emergence Test, Amaranthus retoflexus (AMARE); design: key to percentage damage caused to the plant, AMARE (five-point scale): 5=81-100%, 4=61-80%, 3=41-60%, 2=21-40%, 1=0-20% damage
Outline: as §1

Row | Compound | Pre-emergence Test SETFA, percentage damage caused to the plant (five-point scale) (Setaria faberi (SETFA) [1]; 250 g/Ha (*)) | Pre-emergence Test SETFA, percentage damage caused to the plant (five-point scale) (Setaria faberi (SETFA) [1]; 1000 g/ha) | Pre-emergence Test ECHCG, percentage damage caused to the plant (five-point scale) ([2]; 250 g/Ha (*)) | Pre-emergence Test ECHCG, percentage damage caused to the plant (five-point scale) ([2]; 1000 g/ha) | Pre-emergence Test ZEAMX, percentage damage caused to the plant (five-point scale) (Zea mays (ZEAMX) [3]; 1000 g/ha) | Pre-emergence Test IPOHE, percentage damage caused to the plant (five-point scale) ([4]; 1000 g/ha) | Pre-emergence Test AMAPA, percentage damage caused to the plant (five-point scale) ([5]; 1000 g/ha) | Pre-emergence Test AMARE, percentage damage caused to the plant (five-point scale) ([6]; 1000 g/ha) | percentage damage caused to the plant, SETFA (five-point scale) (Setaria faberi (SETFA) [7]; 250 g/Ha) | percentage damage caused to the plant, SETFA (five-point scale) (Setaria faberi (SETFA) [7]; 1000 g/ha) | percentage damage caused to the plant, ECHCG (five-point scale) ([8]; 250 g/Ha) | percentage damage caused to the plant, ECHCG (five-point scale) ([8]; 1000 g/ha) | percentage damage caused to the plant, ZEAMX (five-point scale) (Zea mays (ZEAMX) [9]; 250 g/Ha) | percentage damage caused to the plant, ZEAMX (five-point scale) (Zea mays (ZEAMX) [9]; 1000 g/ha) | percentage damage caused to the plant, IPOHE (five-point scale) ([10]; 250 g/Ha) | percentage damage caused to the plant, IPOHE (five-point scale) ([10]; 1000 g/ha) | percentage damage caused to the plant, AMAPA (five-point scale) ([11]; 250 g/Ha) | percentage damage caused to the plant, AMAPA (five-point scale) ([11]; 1000 g/ha) | percentage damage caused to the plant, AMARE (five-point scale) ([12]; 250 g/Ha) | percentage damage caused to the plant, AMARE (five-point scale) ([12]; 1000 g/ha) | also measured
1 | CCn1c(Cn2nc(C(F)(F)F)cc2OC(F)F)cc(=O)c(C(=O)O)c1-c1ccc(Cl)c(Cl)c1 [Compound 151, 2-(3,4-dichlorophenyl)-6-[[5-(difluoromethoxy)-3-(trifluoromethyl)pyrazol-1-yl]methyl]-1-ethyl-4-oxo-pyridine-3-carboxylic acid] | 5 (5=81-100%) | 5 (5=81-100%) | 5 (5=81-100%) | 5 (5=81-100%) | 2 (2=21-40%) | 4 (4=61-80%) | 1 (1=0-20%) | 0 | 4 (4=61-80%) | 4 (4=61-80%) | 3 (3=41-60%) | 4 (4=61-80%) | 1 (1=0-20%) | 3 (3=41-60%) | 4 (4=61-80%) | 4 (4=61-80%) | 1 (1=0-20%) | 2 (2=21-40%) | 1 (1=0-20%) | 3 (3=41-60%) | Pre-emergence Test ZEAMX, percentage damage caused to the plant (five-point scale) (Zea mays (ZEAMX) [3]; 250 g/Ha (*)): 2 (2=21-40%); Pre-emergence Test IPOHE, percentage damage caused to the plant (five-point scale) ([4]; 250 g/Ha (*)): 2 (2=21-40%); Pre-emergence Test AMAPA, percentage damage caused to the plant (five-point scale) ([5]; 250 g/Ha (*)): 0; Pre-emergence Test AMARE, percentage damage caused to the plant (five-point scale) ([6]; 250 g/Ha (*)): 0
2 | CCOC(=O)c1c(-c2ccc(Cl)c(Cl)c2)n(CC)c(Cn2ccc(Cl)n2)cc1=O [Compound 3, ethyl 6-[(3-chloropyrazol-1-yl)methyl]-2-(3,4-dichlorophenyl)-1-ethyl-4-oxo-pyridine-3-carboxylate] | 1 (1=0-20%) | 5 (5=81-100%) | 1 (1=0-20%) | 4 (4=61-80%) | 0 | 0 | 0 | 1 (1=0-20%) | 2 (2=21-40%) | 3 (3=41-60%) | 1 (1=0-20%) | 3 (3=41-60%) | 0 | 2 (2=21-40%) | 4 (4=61-80%) | 2 (2=21-40%) | 1 (1=0-20%) | 2 (2=21-40%) | 1 (1=0-20%) | 1 (1=0-20%) | Pre-emergence Test ZEAMX, percentage damage caused to the plant (five-point scale) (Zea mays (ZEAMX) [3]; 250 g/Ha (*)): 0; Pre-emergence Test IPOHE, percentage damage caused to the plant (five-point scale) ([4]; 250 g/Ha (*)): 0; Pre-emergence Test AMAPA, percentage damage caused to the plant (five-point scale) ([5]; 250 g/Ha (*)): 0; Pre-emergence Test AMARE, percentage damage caused to the plant (five-point scale) ([6]; 250 g/Ha (*)): 0
3 | CCOCc1ccn(Cc2cc(=O)c(C(=O)O)c(-c3ccc(Cl)c(Cl)c3)n2CC)n1 [Compound 173, 2-(3,4-dichlorophenyl)-6-[[3-(ethoxymethyl)pyrazol-1-yl]methyl]-1-ethyl-4-oxo-pyridine-3-carboxylic acid] |  | 4 (4=61-80%) |  | 4 (4=61-80%) | 0 | 3 (3=41-60%) | 0 | 0 | 1 (1=0-20%) | 4 (4=61-80%) | 2 (2=21-40%) | 4 (4=61-80%) | 0 | 1 (1=0-20%) | 1 (1=0-20%) | 2 (2=21-40%) | 0 | 1 (1=0-20%) | 0 | 1 (1=0-20%) | 
4 | CCn1c(Cn2cc(C(=O)OC)cn2)cc(=O)c(C(=O)O)c1-c1ccc(Cl)c(Cl)c1 [Compound 40, 2-(3,4-dichlorophenyl)-1-ethyl-6-[(4-methoxycarbonylpyrazol-1-yl)methyl]-4-oxo-pyridine-3-carboxylic acid] |  | 1 (1=0-20%) |  | 0 | 0 | 2 (2=21-40%) | 3 (3=41-60%) | 1 (1=0-20%) | 0 | 1 (1=0-20%) | 1 (1=0-20%) | 0 | 0 | 2 (2=21-40%) | 0 | 2 (2=21-40%) | 0 | 1 (1=0-20%) | 1 (1=0-20%) | 0 | 
5 | CCn1c(Cn2ccc(Cl)n2)cc(=O)c(C(=O)O)c1-c1ccc(Cl)c(Cl)c1 [Compound 4, 6-[(3-chloropyrazol-1-yl)methyl]-2-(3,4-dichlorophenyl)-1-ethyl-4-oxo-pyridine-3-carboxylic acid] | 5 (5=81-100%) | 5 (5=81-100%) | 5 (5=81-100%) | 5 (5=81-100%) | 3 (3=41-60%) | 3 (3=41-60%) | 1 (1=0-20%) | 2 (2=21-40%) | 4 (4=61-80%) | 4 (4=61-80%) | 4 (4=61-80%) | 4 (4=61-80%) | 2 (2=21-40%) | 3 (3=41-60%) |  | 4 (4=61-80%) | 3 (3=41-60%) | 4 (4=61-80%) | 3 (3=41-60%) | 2 (2=21-40%) | Pre-emergence Test ZEAMX, percentage damage caused to the plant (five-point scale) (Zea mays (ZEAMX) [3]; 250 g/Ha (*)): 1 (1=0-20%); Pre-emergence Test IPOHE, percentage damage caused to the plant (five-point scale) ([4]; 250 g/Ha (*)): 2 (2=21-40%); Pre-emergence Test AMAPA, percentage damage caused to the plant (five-point scale) ([5]; 250 g/Ha (*)): 0; Pre-emergence Test AMARE, percentage damage caused to the plant (five-point scale) ([6]; 250 g/Ha (*)): 0
